These results are taken from patent EP4624465A1, “COMPOUND SERVING AS DDR1 KINASE INHIBITOR, AND MEDICINE” (Nippon Shinyaku Co., Ltd., priority 2022, dated 2024).

Each structure is given as a SMILES string. Structures can show the parent of a compound that is named as a salt.

The target of assay [1] is T1, DDR1 kinase (Homo sapiens, UniProt Q08345). Nature of the assay: Evaluation of DDR1 kinase inhibition in DDR1-expressing U2OS cells (type I collagen stimulation, PathHunter detection). The assay is classed as cell-based. Also on record: host or cells: U2OS. The settings on record: type I collagen 50 µg/mL stimulation, duplicate, read-out: DDR-1 IC50.
Target sequence in this assay (Q08345 19-913): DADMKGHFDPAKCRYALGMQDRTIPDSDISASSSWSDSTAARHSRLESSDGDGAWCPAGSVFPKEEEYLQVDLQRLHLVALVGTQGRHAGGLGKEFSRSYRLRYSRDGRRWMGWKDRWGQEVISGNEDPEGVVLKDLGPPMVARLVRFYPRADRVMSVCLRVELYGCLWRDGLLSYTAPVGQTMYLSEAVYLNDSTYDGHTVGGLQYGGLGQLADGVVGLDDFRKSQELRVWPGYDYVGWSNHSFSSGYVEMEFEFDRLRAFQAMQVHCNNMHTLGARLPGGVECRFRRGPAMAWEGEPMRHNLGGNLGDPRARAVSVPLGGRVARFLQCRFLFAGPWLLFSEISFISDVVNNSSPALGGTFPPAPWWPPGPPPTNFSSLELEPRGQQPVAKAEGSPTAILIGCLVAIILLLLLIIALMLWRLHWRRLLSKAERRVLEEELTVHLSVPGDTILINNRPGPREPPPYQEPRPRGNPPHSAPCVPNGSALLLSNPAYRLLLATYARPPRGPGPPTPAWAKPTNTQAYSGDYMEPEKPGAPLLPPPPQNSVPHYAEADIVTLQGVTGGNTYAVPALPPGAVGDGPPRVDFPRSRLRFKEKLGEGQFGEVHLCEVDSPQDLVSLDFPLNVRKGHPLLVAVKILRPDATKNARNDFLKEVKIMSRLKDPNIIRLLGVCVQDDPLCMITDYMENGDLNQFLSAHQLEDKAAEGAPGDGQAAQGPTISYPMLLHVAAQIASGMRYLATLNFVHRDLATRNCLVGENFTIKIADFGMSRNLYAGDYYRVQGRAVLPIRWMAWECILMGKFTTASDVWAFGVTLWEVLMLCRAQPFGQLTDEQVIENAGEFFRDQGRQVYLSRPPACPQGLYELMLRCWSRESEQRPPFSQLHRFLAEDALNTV
Assay [2] has as its target T1, DDR1 kinase. Nature of the assay: Evaluation of DDR1 kinase inhibition (LANCE Ultra TR-FRET kinase assay). The assay is classed as biochemical. Also on record: purchased Carna Biosciences 08-113. Conditions: DDR1 protein 0.5 nM, LANCE Ultra ULight-poly GAT substrate, 2 hours at room temperature, duplicate; read-out: DDR-1 IC50.
Target sequence in this assay (Q08345 19-876 isoform Q08345-2 limits assumed): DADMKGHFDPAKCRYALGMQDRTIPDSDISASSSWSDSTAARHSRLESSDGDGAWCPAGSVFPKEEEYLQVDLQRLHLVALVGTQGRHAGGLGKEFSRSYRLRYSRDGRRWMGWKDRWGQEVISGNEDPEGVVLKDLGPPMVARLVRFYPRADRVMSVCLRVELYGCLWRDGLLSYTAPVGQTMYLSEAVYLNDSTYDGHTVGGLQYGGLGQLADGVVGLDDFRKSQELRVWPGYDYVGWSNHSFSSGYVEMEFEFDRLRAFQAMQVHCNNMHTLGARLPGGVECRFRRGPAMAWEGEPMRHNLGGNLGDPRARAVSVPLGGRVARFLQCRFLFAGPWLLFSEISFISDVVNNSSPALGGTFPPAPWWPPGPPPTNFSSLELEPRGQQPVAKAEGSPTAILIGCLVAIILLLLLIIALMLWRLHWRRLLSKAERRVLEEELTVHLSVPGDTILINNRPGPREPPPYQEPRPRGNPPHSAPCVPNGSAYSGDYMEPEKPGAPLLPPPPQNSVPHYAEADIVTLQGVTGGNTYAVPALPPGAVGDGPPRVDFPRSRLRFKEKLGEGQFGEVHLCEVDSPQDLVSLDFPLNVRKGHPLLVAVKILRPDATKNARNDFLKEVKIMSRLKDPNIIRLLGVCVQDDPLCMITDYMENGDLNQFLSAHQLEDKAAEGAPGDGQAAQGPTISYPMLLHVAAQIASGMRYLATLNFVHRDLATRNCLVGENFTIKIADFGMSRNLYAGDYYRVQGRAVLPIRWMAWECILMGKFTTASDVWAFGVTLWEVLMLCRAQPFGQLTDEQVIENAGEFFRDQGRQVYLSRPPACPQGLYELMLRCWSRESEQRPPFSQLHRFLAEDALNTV

For `Nc1cc(C(=O)N2CC(c3nn(Cc4nc(C(F)(F)F)no4)c4cccc(F)c34)C2)ccn1` [Compound E-115, 4-[3-(4-fluoro-1-{[3-(trifluoromethyn-1,2,4-oxadiazol-5-yl]methyl}-1H-indazol-3-yl)azetidine-1-carbonyl]pyridin-2-amine hydrochloride], the results for the concentration for half-maximal inhibition (IC50) in assay [1] and in assay [2] were 250 nM and 8.6 nM, respectively.

On to `Nc1cc(C(=O)N2CC(c3nn(Cc4noc(-c5ccc(F)cc5)n4)c4cccc(F)c34)C2)ccn1` [Compound E-116, 4-[3-(4-fluoro-1-{[5-(4-fluorophenyl)-1,2,4-oxadiazol-3-yl]methyl}-1H-indazol-3-yl)azetidine-1-carbonyl]pyridin-2-amine], for which the IC50 is 800 nM in assay [1] and 4.4 nM in assay [2].

With `O=C(c1ccnc(NC2CC2)c1)N1CC(c2nn(CC(=O)N3CCC[C@H]3C(F)(F)F)c3cccnc23)C1` [Compound E-121, 2-(3-{1-[2-(cyclopropylamino)pyridine-4-carbonyl]azetidin-3-yl}-1H-pyrazolo[4,3-b]pyridin-1-yl)-1-[(2S)-2-(trifluoromethyl)pyrrolidin-1-yl]ethan-1-one], the figures for the concentration for half-maximal inhibition (IC50) in assay [1] and in assay [2] were 170 nM and 24 nM, respectively.

For the compound `Nc1cc(C(=O)N2CC=C(c3cn(CC(=O)N4CCC[C@H]4C(F)(F)F)c4cccc(F)c34)CC2)ccn1` [Compound E-124], the IC50 worked out at 140 nM in assay [1] and 2.2 nM in assay [2].

As to `Nc1nccc(C(=O)N2CC(c3nn(CC(=O)N4CCC[C@H]4C(F)(F)F)c4cc(F)cc(F)c34)C2)n1` [Compound E-129, 2-{3-[1-(2-aminopyrimidine-4-carbonyl)azetidin-3-yl}-4,6-difluoro-1H-indazol-1-yl}-1-[(2S)-2-(trifluoromethyl)pyrrolidin-1-yl]ethan-1-one], the figures for the IC50 in assay [1] and in assay [2] were 70 nM and 6.3 nM, respectively.

For the compound `Cc1ccc2c(n1)c(C1CN(C(=O)c3ccnc(NC4CC4)c3)C1)nn2CC(=O)N1CCC[C@H]1C(F)(F)F` [Compound E-130, 2-(3-(1-[2-(cyclopropylamino)pyridine-4-carbonyl]azetidin-3-yl}-5-methyl-1H-pyrazolo[4,3-b}pyridin-1-yl)-1-[(2S)-2-(trifluoromethyl)pyrrolidin-1-yl]ethan-1-one], the figures for the IC50 in assay [1] and in assay [2] were 82 nM and 5.7 nM, respectively.

In the case of `Nc1nc(C(F)(F)F)c(C(=O)N2CC(c3nn(CC(=O)N4CCC[C@H]4C(F)(F)F)c4cc(F)cc(F)c34)C2)s1` [Compound E-139, 2-(3-{1-[2-amino-4-(trifluoromethyl)-1,3-thiazole-5-carbonyl]azetidin-3-yl}-4,6-difluoro-1H-indazol-1-yl)-1-[(2S)-2-(trifluoromethyl)pyrrolidin-1-yl]ethan-1-one], the IC50 was 850 nM in assay [1] and 18 nM in assay [2].

For `O=C(c1ccc2[nH]nnc2c1)N1CC(c2nn(CC(=O)N3CCC[C@H]3C(F)(F)F)c3cc(F)cc(F)c23)C1` [Compound E-169, 2-{3-[1-(1H-1,2,3-benztriazole-5-carbonyl)azetidin-3-yl]-4,6-difluoro-1H-indazol-1-yl}-1-[(2S)-2-(trifluoromethyl)pyrrolidin-1-yl]ethan-1-one], the half-inhibitory concentration (IC50) was 1100 nM in assay [1] and 9.8 nM in assay [2].

With `Cc1c(C(=O)N2CC(c3nn(CC(=O)N4CCO[C@@H](C(F)(F)F)C4)c4cncc(F)c34)C2)ccnc1N` [Compound E-180, 2-{3-[1-(2-amino-3-methylpyridine-4-carbonyl)azetidin-3-yl]-4-fluoro-1H-pyrazolo{3,4-c)pyridin-1-yl}-1-[(2R)-2-(trifluoromethyl)morpholin-4-yl}ethan-1-one], the IC50 in assay [1] is 3000 nM; in assay [2] it was 22 nM.

Consider `Cc1nc(N)sc1C(=O)N1CC(c2nn(CC(=O)N3CCCC3COC(F)(F)F)c3cncc(F)c23)C1` [Compound E-183, 2-{3-[1-(2-amino-4-methyl-1,3-thiazole-5-carbonylazetidin-3-yl)-4-fluoro-1H-pyrazolo[3,4-c]pyridin-1-yl}-1-[(2S)-2-[(trifluoromethoxy)methyl]pyrrolidin-1-yl]ethan-1-one p-toluenesulfonate], for which the values for the IC50 in assay [1] and in assay [2] were 500 nM and 8.8 nM, respectively.

Regarding `Cc1ccc2c(n1)c(C1CN(C(=O)c3cc(N)ncc3F)C1)nn2CC(=O)N1CCOC(C(F)(F)F)C1` [Compound E-185, 2-{3-[1-(2-amino-5-fluoropyridine-4-carbonyl)azetidin-3-yl]-5-methyl-1H-pyrazolo(4,3-blpyridin-1-yl}-1-[{(2R)-2-(trifluoromethyl)morpholin-4-yl]ethan-1-one p-toluenesulfonate], the IC50 in assay [1] was found to be 3300 nM; in assay [2], 22 nM.

As to `Cc1ccc2c(n1)c(C1CN(C(=O)c3cc(N)ncc3F)C1)nn2CC(=O)N1CCOCC1(C)C` [Compound E-186, 2-{3-[1-(2-amino-5-fluoropyridine-4-carbonyl)azetidin-3-yl]-5-methyl-1H-pyrazolo[4,3-b]pyridin-1-yl}-1-(3,3-dimethylmorpholin-4-yl)ethan-1-one p-toluenesulfonate], the IC50 was 690 nM in assay [1] and 23 nM in assay [2].

Turning to `CC1(C)COCCN1C(=O)Cn1nc(C2CN(C(=O)c3ccnc(N)c3)C2)c2ccccc21` [Compound E-188, 2-{3-[1-(2-aminopyridine-4-carbonyl)azetidin-3-yl]-1H-indazol-1-yl}-1-(3,3-dimethylmorpholin-4-yl)ethan-1-one], the half-inhibitory concentration (IC50) in assay [1] turned out to be 89 nM; in assay [2], 7.9 nM.

Consider `CC(C)(C)NC(=O)Cn1nc(C2CN(C(=O)c3ccnc(N)c3)C2)c2c(F)cc(F)cc21` [Compound E-189, 2-(3-[1-(2-aminopyridine-4-carbonyl)azetidin-3-yl]-4,6-difluoro-1H-indazol-1-yl}-N-tert-butylacetamide], for which the IC50 in assay [1] turned out to be 460 nM; in assay [2] it was 11 nM.

Consider `Nc1nccc(C(=O)N2CC(c3nn(CC(=O)N4CCO[C@@H](C(F)(F)F)C4)c4ccccc34)C2)c1F` [Compound E-194, 2-{3-[1-(2-amino-3-fluoropyridine-4-carbonyl)azetidin-3-yl]-1H-indazol-1-y1}-1-[(2R)-2-(trifluoromethyl)morpholin-4-yl]ethan-1-one], for which the results for the IC50 in assay [1] and in assay [2] were 370 nM and 4.8 nM, respectively.

Regarding `Nc1nccc(C(=O)N2CC(c3nn(CC(=O)N4CCC[C@H]4C(F)(F)F)c4ccccc34)C2)c1F` [Compound E-196, 2-{3-[1-(2-amino-3-fluoropyridine-4-carbonyl)azetidin-3-yl]-1H-indazol-1-yl}-1-[(28)-2-(trifluoromethyl)pyrrolidin-1-yl]ethan-1-one], the half-maximal inhibitory concentration (IC50) was 43 nM in assay [1] and 2.8 nM in assay [2].

Regarding `Cc1nc(N)sc1C(=O)N1CC(c2nn(CC(=O)N3CCC[C@H]3C(F)(F)F)c3ccccc23)C1` [Compound E-197, 2-(3-[1-(2-amino-4-methyl-1,3-thiazole-5-carbonyl)azetidin-3-yl]-1H-indazol-1-yl}-1-[(2S)-2-(trifluoromethyl)pyrrolidin-1-yl]ethan-1-one], the IC50 in assay [1] is 150 nM; in assay [2] it was 2.3 nM.

Turning to `Nc1cc(C(=O)N2CC(c3nn(CC(=O)N4CCC[C@H]4C(F)(F)F)c4ccc(Cl)cc34)C2)c(F)cn1` [Compound E-206, 2-{3-[1-(2-amino-5-fluoropyridine-4-carbonyl)azetidin-3-yl}-5-chloro-1H-indazol-1-yl}-1-[(2S)-2-(trifluoromethyl)pyrrolidin-1-yl]ethan-1-one], the half-maximal inhibitory concentration (IC50) in assay [1] amounted to 6 nM; in assay [2], 1.6 nM.

As to `Nc1cc(C(=O)N2CC(c3nn(CC(=O)NCC(F)(F)F)c4ccccc34)C2)ccn1` [Compound E-211, 2-{3-[1-(2-aminopyridine-4-carbonyl)azetidin-3-yl]-1H-indazol-1-yl}-N-(2,2,2-trifluoroethyl)acetamide], the values for the IC50 in assay [1] and in assay [2] were 290 nM and 27 nM, respectively.

As for `Nc1cc(C(=O)N2CC(c3nn(CC(=O)NC4CC(F)(F)C4)c4ccccc34)C2)ccn1` [Compound E-214, 2-{3-[1-(2-aminopyridine-4-carbonyl)azetidin-3-yl]-1H-indazol-1-yl}-N-(3,3-difluorocyclobutyl)acetamide], the half-maximal inhibitory concentration (IC50) came to 380 nM in assay [1] and 10 nM in assay [2].

With `Nc1cc(C(=O)N2CC(c3nn(Cc4nc(C(F)(F)F)no4)c4ccccc34)C2)ccn1` [Compound E-218], the IC50 came out at 74 nM in assay [1] and 13 nM in assay [2].

Turning to `Nc1cc(C(=O)N2CC(c3nn(CC(=O)NC4CCCC4(F)F)c4ccccc34)C2)ccn1` (stereo not shown) [Compound E-225, 2-{3-[1-(2-aminopyridine-4-carbonyl)azetidin-3-yl}-1H-indazol-1-yl}-N-(2,2-difluorocyclopentyl)acetamide], the concentration for half-maximal inhibition (IC50) is 450 nM in assay [1] and 17 nM in assay [2].

For `COC[C@@H]1CCCN1C(=O)Cn1nc(C2CN(C(=O)c3ccnc(N)c3)C2)c2ccccc21` [Compound E-228, 2-{3-[1-(2-aminopyridine-4-carbonyl)azetidin-3-yl}-1H-indazol-1-yl}-1-[(2S)-2-(methoxymethyl)pyrrolidin-1-yl]ethan-1-one], the figures for the IC50 in assay [1] and in assay [2] were 95 nM and 9 nM, respectively.

In the case of `CN(CC1CC1)C(=O)Cn1nc(C2CN(C(=O)c3ccnc(N)c3)C2)c2ccccc21` [Compound E-229, 2-{3-[1-(2-aminopyridine-4-carbonyl)azetidin-3-yl]-1H-indazol-1-yl}-N-(cyclopropylmethyl)-N-methylacetamide], the figures for the half-inhibitory concentration (IC50) in assay [1] and in assay [2] were 81 nM and 6 nM, respectively.

With `N#C[C@@H]1CCCN1C(=O)Cn1nc(C2CN(C(=O)c3cc(N)ncc3F)C2)c2ccccc21` [Compound E-236], the IC50 was 120 nM in assay [1] and 4.8 nM in assay [2].

`Nc1cc(C(=O)N2CC(c3nn(CC(=O)N4CC(F)(F)C[C@H]4CF)c4ccccc34)C2)c(F)cn1` [Compound E-237, 2-{3-[1-(2-amino-5-fluoropyridine-4-carbonyl)azetidin-3-yl]-1H-indazol-1-yl]-1-[(2S)-4,4-difluoro-2-(fluoromethyl)pyrrolidin-1-yl]ethan-1-one]: the IC50 came to 34 nM in assay [1] and 3.8 nM in assay [2].
